According to patent US20230172201A1, “Use of 4-Phenylbutyric Acid and/or 3-Phenylbutyric Acid and/or 2-Phenylbutyric Acid in Preventing and Treating Cryptogamic Diseases” (Institut National de Recherche Pour L'Agriculture, …, priority 2020, published 2023):
Like-named read-outs stand apart in the source and are kept apart here.

Columns and labels:
Fusarium graminearum = assay: microbe, parasite or virus in culture; format: cell-based
Fusarium verticilloides = assay: Radial growth of the mycelium; format: cell-based; details: 288 h
[1] = test system: Botrytis cinerea (BMM strain); assay: Germination of the spores and growth of the primary hypha in liquid medium; format: cell-based; details: 16 to 18 hours
[2] = test system: Botrytis cinerea (BMM strain); assay: Protection of tomato foliar disks against gray rot, B. cinerea spore inoculum with or without compound; format: in vivo; details: for proportion of lesions larger than 4 mm in diameter: tomato Moneymaker foliar disks, 3 days; for median ratio of gDNA of the fungus to that of the plant, times lower than fungus alone / decrease of the average diameter of the lesions: tomato Moneymaker
[3] = test system: Botrytis cinerea (BMM strain); assay: Radial growth of the mycelium on solid PDA medium
Method: The BMM strain of the fungus B. cinerea was cultured for about 10 days on solid PDA medium (24 g/L of PDB and 15 g/L of agar) in the dark and at a temperature of 22° C. A cylinder of agar comprising the mycelium at its top was then cut out with a sterile punch with a diameter of 6 mm, and was then deposited at the center of round Petri dishes (9 cm diameter) containing PDA medium supplemented or not with 4-PBA. 4-PBA, prepared extemporaneously, was added directly to the molten culture medium to final concentrations of 1, 2 and 5 mM. Controls were prepared by adding a volume of sterile water equivalent to the highest concentration of 4-PBA. The dishes were kept in the dark at a temperature of 22° C. throughout the experiment. […] For this, the following linear regression was used: Degree of inhibition (%)=f(ln[4-PBA]).

[4] = test system: Arabidopsis thaliana (ecotype Col-0); assay: Phytotoxicity after leaf infiltration; format: in vivo; details: 0.5 or 1 mM; 48 hours after infiltration
Method: Material and Methods. Seeds of A. thaliana (ecotype Col-0) were sown in individual pots directly on compost without a prior step of stratification. […] The experiment was repeated 3 times. Each experiment included about ten plants. Six leaves representative of the 3 experiments were photographed 48 hours after infiltration (FIG. 5c).

Cercospora beticola = assay: Radial growth of the mycelium; format: cell-based; details: 528 h
Magnaporthe oryzae = assay: microbe, parasite or virus in culture; format: cell-based; details: Pyricularia oryzae, 336 h
Helmintosporium teres = assay: Radial growth of the mycelium; format: cell-based
Alternaria brassicicola = assay: Radial growth of the mycelium; format: cell-based; details: 240 h; for inhibition at 1000 µM / inhibition at 2000 µM / inhibition at 5000 µM: time 10 days
Phytophthora parasitica = assay: Radial growth of the oomycete; format: cell-based
Alternaria solani = assay: Radial growth of the mycelium; format: cell-based; details: 528 h
[5] = test system: Botrytis cinerea (BMM strain); assay: Protection of grapevine foliar disks against gray rot, B. cinerea spore inoculum with or without 4-PBA; format: in vivo; details: grapevine cv. Gamay foliar disks; 4-PBA 1 mM; 5·10^4 spores/mL; 3 days
Method: Material and Methods. A commercial variety of grapevine (Vitis […], cultivar Gamay) was grown in a greenhouse for 6 weeks. […] The inoculum was prepared as mentioned above for the experiments carried out with A. thaliana. A volume of 6 μL was deposited on each disk. The infected disks were incubated as for the experiments carried out on foliar disks of tomato. The disease symptoms were photographed and quantified 3 days after infection from the distribution of the lesions as a function of their diameter and by measuring the largest diameter of the lesions. […] The results presented in FIG. 4 correspond to the mean values±standard deviation.

[6] = test system: Botrytis cinerea (BMM strain); assay: Protection of thale cress leaves against gray rot, B. cinerea spore inoculum with or without 4-PBA; format: in vivo; details: A. thaliana Col-0 leaves, 4-PBA 1 mM in inoculum
[7] = test system: Colletrotrichum lindemuthianum; assay: Radial growth of the mycelium; format: cell-based
Zymoseptoria tritici = assay: Growth of the primary hypha on PG solid medium; format: cell-based
[8] = test system: Botrytis cinerea (BMM strain); assay: Mycelial development in liquid medium, absorbance at 600 nm (nephelometry); format: cell-based; details: 1 mM
[9] = test system: Phanerochaete chrysosporium; assay: Radial growth of the mycelium; format: cell-based
Sclerotinia sclerotorum = assay: Radial growth of the mycelium; format: cell-based; details: 168 h
[10] = lowest concentration tested (1 mM)
[11] = time 22 days (day control colonized the whole Petri dish)
[12] = radial growth EC50 compared with B. cinerea

O=C(O)CCCc1ccccc1 [4-PBA, 4-Phenylbutyric acid]
inhibition at 1000 µM (Fusarium graminearum; Fusarium graminearum, 144 h): 48%
inhibition at 2000 µM (Fusarium graminearum; Fusarium graminearum, 144 h): 97%
inhibition at 5000 µM (Fusarium graminearum; Fusarium graminearum, 144 h): 99%
persistence of the molecule (Fusarium graminearum; [10]): up to 10 days
inhibition at 1000 µM (Fusarium verticilloides; 1 mM 4-PBA, time 12 days): 66%
inhibition at 2000 µM (Fusarium verticilloides; 2 mM 4-PBA, time 12 days): 74%
inhibition at 5000 µM (Fusarium verticilloides; 5 mM 4-PBA, time 12 days): 98%
EC50 (Fusarium verticilloides; time 12 days (day control colonized the whole Petri dish)): 500 µM
germination rate of the spores ([1]; 4-PBA 0.1 mM): 100%
inhibition at 1000 µM ([1]; Botrytis cinerea, 1 mM): 86%
concentration from which growth of the primary hypha is limited ([1]; liquid PDB): ≥ 0.1 mM
average diameters of the foliar lesions as a function of concentration ([2]; tomato M82 foliar disks, 0.5 to 2.5 mM): gradual decrease
efficacy of protection compared with the Moneymaker variety ([2]; tomato M82 foliar disks, 4-PBA 1 mM): equivalent efficacy
proportion of lesions larger than 4 mm in diameter ([2]; 4-PBA 1 mM, 5·10^4 spores/mL): 15%
proportion of lesions larger than 4 mm in diameter ([2]; 4-PBA 1 mM, 5·10^5 spores/mL): 23%
median ratio of gDNA of the fungus to that of the plant, times lower than fungus alone ([2]; 4-PBA 1 mM, 5·1^04 spores/mL): 40 times
median ratio of gDNA of the fungus to that of the plant, times lower than fungus alone ([2]; 4-PBA 1 mM, 5·10^5 spores/mL): 10 times
decrease of the average diameter of the lesions ([2]; 4-PBA 1 mM, highest concentration of spores (5·10^5 spores/mL)): 58%
decrease of the average diameter of the lesions ([2]; 4-PBA 1 mM, lowest concentration of spores (5·10^4 spores/mL)): 68%
persistence of the active principle ([3]; 5 mM in culture medium): up to 23 days
radial growth of the mycelium ([3]; 1, 2 and 5 mM in PDA, 26 days): dose-dependent slowing
EC50 ([3]; Botrytis cinerea, read-out: EC50 (median inhibitory concentration, radial growth halved)): 2000 to 3000 µM
macroscopic symptoms after infiltration of the leaves [4]: absence of macroscopic symptoms
inhibition at 1000 µM (Cercospora beticola; 1 mM 4-PBA, time 22 days): 0%
inhibition at 2000 µM (Cercospora beticola; 2 mM 4-PBA, time 22 days): 13%
inhibition at 5000 µM (Cercospora beticola; 5 mM 4-PBA, time 22 days): 67%
EC50 (Cercospora beticola; [11]): 2810 µM
EC50 (Magnaporthe oryzae): 1330 µM
inhibition at 1000 µM (Magnaporthe oryzae): 39%
inhibition at 2000 µM (Magnaporthe oryzae): 66%
inhibition at 5000 µM (Magnaporthe oryzae): 100%
inhibition at 1000 µM (Helmintosporium teres; 240 h, 1 mM 4-PBA, time 10 days): 94%
inhibition at 2000 µM (Helmintosporium teres; 240 h, 2 mM 4-PBA, time 10 days): 97%
inhibition at 5000 µM (Helmintosporium teres; 240 h, 5 mM 4-PBA, time 10 days): 100%
EC50 (Helmintosporium teres; 240 h, time 10 days (day control colonized the whole Petri dish)): 0.00665 µM
persistence of the molecule (Helmintosporium teres; [10]): ≤ 30 days
EC50 times lower than that of B. cinerea (Helmintosporium teres; [12]): 450 000 times
inhibition at 1000 µM (Alternaria brassicicola; strain 1, 1 mM 4-PBA): 70%
inhibition at 2000 µM (Alternaria brassicicola; strain 1, 2 mM 4-PBA): 88%
inhibition at 5000 µM (Alternaria brassicicola; strain 1, 5 mM 4-PBA): 97%
EC50 (Alternaria brassicicola; strain 1, time 10 days): 260 µM
inhibition at 1000 µM (Alternaria brassicicola; strain 1509, 1 mM 4-PBA): 58%
inhibition at 2000 µM (Alternaria brassicicola; strain 1509, 2 mM 4-PBA): 81%
inhibition at 5000 µM (Alternaria brassicicola; strain 1509, 5 mM 4-PBA): 96%
EC50 (Alternaria brassicicola; strain 1509, time 10 days): 640 µM
growth at higher concentrations (Phytophthora parasitica; 2 and 5 mM): complete absence of growth for 20 days
inhibition at 1000 µM (Phytophthora parasitica; Phytophthora nicotianae, 240 h, 1 mM 4-PBA, time 10 days): 95%
inhibition at 2000 µM (Phytophthora parasitica; Phytophthora nicotianae, 240 h, 2 mM 4-PBA, time 10 days): 99%
inhibition at 5000 µM (Phytophthora parasitica; Phytophthora nicotianae, 240 h, 5 mM 4-PBA, time 10 days): 100%
EC50 (Phytophthora parasitica; Phytophthora nicotianae, 240 h, time 10 days (day control colonized the whole Petri dish)): 0.00024 µM
difference between EC50 calculated for B. cinerea and for P. parasitica (Phytophthora parasitica; Table 2 and FIG. 6b): 7 orders of magnitude
times more sensitive to the molecule than B. cinerea (Phytophthora parasitica; [12]): about 12 million
inhibition at 1000 µM (Alternaria solani; 1 mM 4-PBA, time 22 days): 25%
inhibition at 2000 µM (Alternaria solani; 2 mM 4-PBA, time 22 days): 62%
inhibition at 5000 µM (Alternaria solani; 5 mM 4-PBA, time 22 days): 100%
EC50 (Alternaria solani; [11]): 1650 µM
decrease in the average diameter of the lesions [5]: ~75%
leaves that did not display symptoms ([6]; 5·10^4 spores/mL, 4 days after inoculation): 37%
proportion of lesions whose diameter was greater than 4 mm ([6]; 4 days after inoculation): 23%
average diameter of the lesions divided by ([6]; 4 days, relative to fungus alone): 2.2 times
ratio of gDNA of the fungus to that of the plant, median decrease by a factor ([6]; quantitative PCR): 10
inhibition at 1000 µM ([7]; 288 h, 1 mM 4-PBA, time 12 days): 67%
inhibition at 2000 µM ([7]; 288 h, 2 mM 4-PBA, time 12 days): 75%
inhibition at 5000 µM ([7]; 288 h, 5 mM 4-PBA, time 12 days): 97%
EC50 ([7]; 288 h, time 12 days (day control colonized the whole Petri dish)): 450 µM
persistence of the molecule [7, 10]: ≤ 30 days
EC50 (Zymoseptoria tritici; 48 h, isolate 14-FT-A1, 48 hours): 245 µg/mL
EC50 (Zymoseptoria tritici; 48 h, isolate 14-FT-A1, 48 hours, read-out: EC50): 1320 µM
EC50 (Zymoseptoria tritici; 48 h, isolate 37-30, 48 hours): 163 µg/mL
EC50 (Zymoseptoria tritici; 48 h, isolate 37-30, 48 hours, read-out: EC50): 874 µM
EC50 (Zymoseptoria tritici; 48 h, isolate 37-41, 48 hours): 164 µg/mL
EC50 (Zymoseptoria tritici; 48 h, isolate 37-41, 48 hours, read-out: EC50): 880 µM
EC50 (Zymoseptoria tritici; 48 h, isolate 11183, 48 hours): 196 µg/mL
EC50 (Zymoseptoria tritici; 48 h, isolate 11183, 48 hours, read-out: EC50): 1050 µM
EC50 (Zymoseptoria tritici; 48 h, isolate IPO-323, 48 hours): 122 µg/mL
EC50 (Zymoseptoria tritici; 48 h, isolate IPO-323, 48 hours, read-out: EC50): 657 µM
EC50 (Zymoseptoria tritici; 48 h, isolate ST5548, 48 hours): 246 µg/mL
EC50 (Zymoseptoria tritici; 48 h, isolate ST5548, 48 hours, read-out: EC50): 1320 µM
EC50 (Zymoseptoria tritici; 48 h, isolate STDP-047915, 48 hours): 212 µg/mL
EC50 (Zymoseptoria tritici; 48 h, isolate STDP-047915, 48 hours, read-out: EC50): 1140 µM
EC50 (Zymoseptoria tritici; six isolates resistant to conventional fungicides, read-out: EC50 calculated for all of these isolates, order of magnitude): ~1000 µM
repression of mycelial growth measured by nephelometry ([8]; 4 days, Example 3): 94%
inhibition at 1000 µM ([8]; Botrytis cinerea, 96 h, incubation for 4 days, Example 4, read-out: degree of inhibition): 97%
time for the fungus to overcome supplementation of the culture medium ([9]; 4-PBA 1 mM): 14 days
inhibition at 1000 µM ([9]; Phanerodontia chrysosporium, 96 h, 1 mM 4-PBA, time 4 days): 99%
inhibition at 2000 µM ([9]; Phanerodontia chrysosporium, 96 h, 2 mM 4-PBA, time 4 days): 100%
inhibition at 5000 µM ([9]; Phanerodontia chrysosporium, 96 h, 5 mM 4-PBA, time 4 days): 100%
development at higher concentrations ([9]; final concentrations of 2 and 5 mM): unable to develop
inhibition at 1000 µM (Sclerotinia sclerotorum; 1 mM 4-PBA, time 7 days): 0%
inhibition at 2000 µM (Sclerotinia sclerotorum; 2 mM 4-PBA, time 7 days): 73%
inhibition at 5000 µM (Sclerotinia sclerotorum; 5 mM 4-PBA, time 7 days): 100%
EC50 (Sclerotinia sclerotorum; time 7 days (day control colonized the whole Petri dish)): 1900 µM
